From patent US10464911B2, “1,3,4-oxadiazole sulfamide derivative compounds as histone deacetylase 6 inhibitor, and the pharmaceutical composition comprising the same” (Chong Kun Dang Pharmaceutical Corp., priority 2015, dated 2019)
Counter-ions that a name gives are not always drawn.

Molecular target: human recombinant HDAC6 (Homo sapiens (Human), UniProt Q9UBN7)
Assay: HDAC6 enzyme activity inhibition assay (HDAC Fluorimetric Drug Discovery Kit)
Type: biochemical
Details: for HDAC6 selectivity (fold): HDAC6 versus HDAC1; for IC50: human recombinant HDAC6, same protocol as HDAC1 test
Description: In order to examine the HDAC6 selectivity of the compounds of formula I of the present invention by HDAC1 and HDAC6 enzymatic activity inhibition assays, an experiment was performed using a conventional substance as a control.
HDAC enzyme activity was measured using a HDAC Fluorimetric Drug Discovery Kit (BML-AK511, 516, Enzo Life Science). For the HDAC1 enzyme activity test, human recombinant HDAC1 (BML-SE456) was used as an enzyme source, and Fluor de Lys®-“SIRT1 (BNL-KI177) was used as a substrate. A 5-fold dilution of the compound was seeded into a 96-well plate, and then 0.3 μg of the enzyme and 10 μM of the substrate were added to each well of the plate and allowed to react at 30 for 60 minutes. Then, Fluor de Lys®-Developer II (BML-KI176) was added thereto and allowed to react for 30 minutes, after which the fluorescence value (Ex 360, Em 460) was measured using a multi-plate reader (Flexstation 3, Molecular Device). The HDAC6 enzyme was tested using human recombinant HDAC6 (382180) (Calbiochem) according to the same protocol as the HDAC1 enzyme activity test method. Based on the resulting values, each IC50 value was calculated using GraphPad Prism4.0 program.

human recombinant HDAC6, sequence (Q9UBN7 whole entry): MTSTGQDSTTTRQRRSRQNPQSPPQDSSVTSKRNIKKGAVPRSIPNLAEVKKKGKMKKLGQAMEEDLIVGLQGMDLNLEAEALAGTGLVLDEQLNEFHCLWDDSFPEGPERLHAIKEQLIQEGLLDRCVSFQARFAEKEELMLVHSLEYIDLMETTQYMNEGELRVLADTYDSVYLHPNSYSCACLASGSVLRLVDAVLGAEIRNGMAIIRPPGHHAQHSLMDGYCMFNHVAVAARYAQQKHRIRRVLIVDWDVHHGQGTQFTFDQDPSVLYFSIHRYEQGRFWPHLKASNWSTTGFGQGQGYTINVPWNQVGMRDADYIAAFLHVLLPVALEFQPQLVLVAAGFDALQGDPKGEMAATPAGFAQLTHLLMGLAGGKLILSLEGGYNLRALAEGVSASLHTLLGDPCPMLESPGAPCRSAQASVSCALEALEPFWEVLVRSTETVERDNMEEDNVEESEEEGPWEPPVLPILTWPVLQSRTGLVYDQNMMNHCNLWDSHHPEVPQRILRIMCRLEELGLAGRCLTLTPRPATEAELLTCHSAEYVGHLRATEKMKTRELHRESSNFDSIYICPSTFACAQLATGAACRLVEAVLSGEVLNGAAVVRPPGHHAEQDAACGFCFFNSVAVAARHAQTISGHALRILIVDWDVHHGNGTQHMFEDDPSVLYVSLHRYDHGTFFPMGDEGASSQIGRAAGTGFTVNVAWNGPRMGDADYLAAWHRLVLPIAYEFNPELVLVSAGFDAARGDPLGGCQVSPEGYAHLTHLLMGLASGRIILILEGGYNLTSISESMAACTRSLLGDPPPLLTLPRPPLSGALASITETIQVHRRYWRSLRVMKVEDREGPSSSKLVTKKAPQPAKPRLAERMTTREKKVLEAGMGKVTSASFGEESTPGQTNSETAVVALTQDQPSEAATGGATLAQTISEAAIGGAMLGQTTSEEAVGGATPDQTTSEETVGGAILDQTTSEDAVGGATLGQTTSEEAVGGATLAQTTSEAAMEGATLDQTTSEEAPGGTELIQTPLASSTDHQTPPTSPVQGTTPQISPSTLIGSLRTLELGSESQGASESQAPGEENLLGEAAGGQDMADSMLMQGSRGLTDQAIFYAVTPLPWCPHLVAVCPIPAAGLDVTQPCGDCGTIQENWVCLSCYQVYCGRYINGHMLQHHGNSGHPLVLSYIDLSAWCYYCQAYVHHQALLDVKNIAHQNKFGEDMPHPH

Row | HDAC6 selectivity (fold) | IC50 | Compound
1 | 1829 fold | 0.055 µM | CN1CCN(S(=O)(=O)N(Cc2ccc(-c3nnc(C(F)F)o3)cc2F)c2cccnc2)CC1 [Compound 11320, N-(4-(5-(difluoromethyl)-1,3,4-oxadiazol-2-yl)-2-fluorobenzyl)-4-methyl-N-(pyridin-3-yl)piperazine-1-sulfonamide]
2 | 6863 fold | 0.015 µM | CN1CCN(S(=O)(=O)N(Cc2ccc(-c3nnc(C(F)F)o3)cn2)c2ccccc2)CC1 [Compound 11363, N-((5-(5-(difluoromethyl)-1,3,4-oxadiazol-2-yl)pyridin-2-yl)methyl)-4-methyl-N-phenylpiperazine-1-sulfonamide]
3 | 3846 fold | 0.026 µM | O=S(=O)(N1CCN(C2COC2)CC1)N(Cc1ccc(-c2nnc(C(F)F)o2)cc1F)c1ccccc1 [Compound 11379, N-(4-(5-(difluoromethyl)-1,3,4-oxadiazol-2-yl)-2-fluorobenzyl)-4-(oxetan-3-yl)-N-phenylpiperazine-1-sulfonamide]
4 | 5000 fold | 0.02 µM | O=S1(=O)CCN(S(=O)(=O)N(Cc2ccc(-c3nnc(C(F)F)o3)cn2)c2ccccc2)CC1 [Compound 11440, N-((5-(5-(difluoromethyl)-1,3,4-oxadiazol-2-yl)pyridin-2-yl)methyl)-N-phenylthiomorpholine-4-sulfonamide 1,1-dioxide]
5 | 6250 fold | 0.016 µM | O=S(=O)(N1CCN(C2COC2)CC1)N(Cc1ccc(-c2nnc(C(F)F)o2)cn1)c1ccccc1 [Compound 11574, N-((5-(5-(difluoromethyl)-1,3,4-oxadiazol-2-yl)pyridin-2-yl)methyl)-4-(oxetan-3-yl)-N-phenylpiperazine-1-sulfonamide]
6 | 2083 fold | 0.048 µM | O=S(=O)(N1CCN(C2COC2)CC1)N(Cc1ccc(-c2nnc(C(F)F)o2)cc1)c1ccccc1 [Compound 11575, N-(4-(5-(difluoromethyl)-1,3,4-oxadiazol-2-yl)benzyl)-4-(oxetan-3-yl)-N-phenylpiperazine-1-sulfonamide]
7 | 422 fold | 0.237 µM | O=S(=O)(N1CCN(C2CCC2)CC1)N(Cc1ccc(-c2nnc(C(F)F)o2)cc1)c1ccc(F)c(Cl)c1 [Compound 11652, N-(3-chloro-4-fluorophenyl)-4-cyclobutyl-N-(4-(5-(difluoromethyl)-1,3,4-oxadiazol-2-yl)benzyl)piperazine-1-sulfonamide]
8 | 4761 fold | 0.021 µM | CC(C)N1CCN(S(=O)(=O)N(Cc2ccc(-c3nnc(C(F)F)o3)cn2)c2ccc(F)c(Cl)c2)CC1 [Compound 11670, N-(3-chloro-4-fluorophenyl)-N-((5-(5-(difluoromethyl)-1,3,4-oxadiazol-2-yl)pyridin-2-yl)methyl)-4-isopropylpiperazine-1-sulfonamide]
9 | 3703 fold | 0.027 µM | O=S(=O)(N1CCN(C2CCC2)CC1)N(Cc1ccc(-c2nnc(C(F)F)o2)cn1)c1ccc(F)c(Cl)c1 [Compound 11671, N-(3-chloro-4-fluorophenyl)-4-cyclobutyl-N-((5-(5-(difluoromethyl)-1,3,4-oxadiazol-2-yl)pyridin-2-yl)methyl)piperazine-1-sulfonamide]
10 | 7142 fold | 0.014 µM | O=S(=O)(N1CCN(C2COC2)CC1)N(Cc1ccc(-c2nnc(C(F)F)o2)cn1)c1ccc(F)c(Cl)c1 [Compound 11672, N-(3-chloro-4-fluorophenyl)-N-((5-(5-(difluoromethyl)-1,3,4-oxadiazol-2-yl)pyridin-2-yl)methyl)-4-(oxetan-3-yl)piperazine-1-sulfonamide]
11 | 1351 fold | 0.074 µM | CC(C)N1CCN(S(=O)(=O)N(Cc2ccc(-c3nnc(C(F)F)o3)cc2)c2ccccc2)CC1 [Compound 11673, N-(4-(5-(difluoromethyl)-1,3,4-oxadiazol-2-yl)benzyl)-4-isopropyl-N-phenylpiperazine-1-sulfonamide]

Second part, the compound before the results:

Row | Compound | HDAC6 selectivity (fold) | IC50
12 | CS(=O)(=O)N1CCN(S(=O)(=O)N(Cc2ccc(-c3nnc(C(F)F)o3)cc2F)c2cccnc2)CC1 [Compound 11319, N-(4-(5-(difluoromethyl)-1,3,4-oxadiazol-2-yl)-2-fluorobenzyl)-4-(methylsulfonyl)-N-(pyridin-3-yl)piperazine-1-sulfonamide] | 1464 fold | 0.068 µM
13 | O=S(=O)(N1CCNCC1)N(Cc1ccc(-c2nnc(C(F)(F)F)o2)cc1F)c1cccnc1 [Compound 11321, N-(2-fluoro-4-(5-(trifluoromethyl)-1,3,4-oxadiazol-2-yl)benzyl)-N-(pyridin-3-yl)piperazine-1-sulfonamide Dihydrochloride] | 2249 fold | 0.044 µM
14 | CC(=O)N1CCN(S(=O)(=O)N(Cc2ccc(-c3nnc(C(F)(F)F)o3)cc2F)c2cccnc2)CC1 [Compound 11322, 4-acetyl-N-(2-fluoro-4-(5-(trifluoromethyl)-1,3,4-oxadiazol-2-yl)benzyl)-N-(pyridin-3-yl)piperazine-1-sulfonamide] | 1507 fold | 0.066 µM
15 | CCN1[C@H](C)CN(S(=O)(=O)N(Cc2ccc(-c3nnc(C(F)F)o3)cc2)c2ccccc2)C[C@@H]1C [Compound 11640, (3S,5R)—N-(4-(5-(difluoromethyl)-1,3,4-oxadiazol-2-yl)benzyl)-4-ethyl-3,5-dimethyl-N-phenylpiperazine-1-sulfonamide] | 946 fold | 0.105 µM
16 | CC(=O)N1[C@H](C)CN(S(=O)(=O)N(Cc2ccc(-c3nnc(C(F)F)o3)cc2)c2ccccc2)C[C@@H]1C [Compound 11641, (3S,5R)-4-acetyl-N-(4-(5-(difluoromethyl)-1,3,4-oxadiazol-2-yl)benzyl)-3,5-dimethyl-N-phenylpiperazine-1-sulfonamide] | 2989 fold | 0.033 µM
17 | CCCN1[C@H](C)CN(S(=O)(=O)N(Cc2ccc(-c3nnc(C(F)F)o3)cc2)c2ccccc2)C[C@@H]1C [Compound 11642, (3S,5R)—N-(4-(5-(difluoromethyl)-1,3,4-oxadiazol-2-yl)benzyl)-3,5-dimethyl-N-phenyl-4-propylpiperazine-1-sulfonamide] | 287 fold | 0.348 µM
18 | C[C@@H]1CN(S(=O)(=O)N(Cc2ccc(-c3nnc(C(F)F)o3)cc2)c2ccccc2)C[C@H](C)N1C [Compound 11643, (3S,5R)—N-(4-(5-(difluoromethyl)-1,3,4-oxadiazol-2-yl)benzyl)-3,4,5-trimethyl-N-phenylpiperazine-1-sulfonamide] | 1443 fold | 0.069 µM
19 | C[C@@H]1CN(S(=O)(=O)N(Cc2ccc(-c3nnc(C(F)F)o3)cc2)c2ccccc2)C[C@H](C)N1C(=O)C(F)F [Compound 11644, (3S,5R)-4-(2,2-difluoroacetyl)-N-(4-(5-(difluoromethyl)-1,3,4-oxadiazol-2-yl)benzyl)-3,5-dimethyl-N-phenylpiperazine-1-sulfonamide] | 770 fold | 0.13 µM
20 | CC(C)N1CCN(S(=O)(=O)N(Cc2ccc(-c3nnc(C(F)F)o3)cc2)c2ccc(F)c(Cl)c2)CC1 [Compound 11651, N-(3-chloro-4-fluorophenyl)-N-(4-(5-(difluoromethyl)-1,3,4-oxadiazol-2-yl)benzyl)-4-iso propylpiperazine-1-sulfonamide] | 207 fold | 0.481 µM
